From the supplement of paper PMC10733146

Tests used:
Assay in all cases: viability relative to DMSO control (fraction); higher = less drug effect (more viable cells)
Details in all cases: 48 h
Vemurafenib = compound: CCCS(=O)(=O)Nc1ccc(F)c(C(=O)c2c[nH]c3ncc(-c4ccc(Cl)cc4)cc23)c1F [Vemurafenib]
Method in brief: (§1)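 The cells were primary mononuclear tumour cells, either fresh or cryopreserved, isolated by Ficoll from blood or bone marrow or derived from processed lymph node. Each well of a 384-well plate received 4 × 10^4 cells onto compounds pre-plated at five concentrations, with one well per concentration. The medium was RPMI-1640 with penicillin/streptomycin, L-glutamine and human serum, and plates stood at 37 °C and 5% CO2 for 48 h. Viability is reported as CellTiter-Glo luminescence relative to the median of 16 inner DMSO wells.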

Pentostatin = compound: OC[C@H]1O[C@@H](n2cnc3c2N=CNC[C@H]3O)C[C@@H]1O [Pentostatin]
Method in brief: as §1

Carfilzomib = compound: CC(C)C[C@H](NC(=O)[C@H](CCc1ccccc1)NC(=O)CN1CCOCC1)C(=O)N[C@@H](Cc1ccccc1)C(=O)N[C@@H](CC(C)C)C(=O)[C@@]1(C)CO1 [Carfilzomib]
Method in brief: as §1

MLN-120B = compound: COc1c(Cl)cc2c([nH]c3cnccc32)c1NC(=O)c1cccnc1C [MLN-120B]
Method in brief: as §1

Rigosertib = compound: COc1cc(OC)c(/C=C/S(=O)(=O)Cc2ccc(OC)c(NCC(=O)O)c2)c(OC)c1 [Rigosertib]
Method in brief: as §1

AZD7762 = compound: NC(=O)Nc1cc(-c2cccc(F)c2)sc1C(=O)N[C@H]1CCCNC1 [AZD7762]
Method in brief: as §1

[1] = compound: OCc1ccc(-c2ccc(-c3ccc(CO)s3)o2)s1
Method in brief: as §1

Panobinostat = compound: Cc1[nH]c2ccccc2c1CCNCc1ccc(/C=C/C(=O)NO)cc1 [Panobinostat]
Method in brief: as §1

Vincristine = compound: CC[C@]1(O)C[C@H]2CN(CCc3c([nH]c4ccccc34)[C@@](C(=O)OC)(c3cc4c(cc3OC)N(C=O)[C@H]3[C@@](O)(C(=O)OC)[C@H](OC(C)=O)[C@]5(CC)C=CCN6CC[C@]43[C@@H]65)C2)C1 [Vincristine]
Method in brief: as §1

Imatinib = compound: Cc1ccc(NC(=O)c2ccc(CN3CCN(C)CC3)cc2)cc1Nc1nccc(-c2cccnc2)n1 [Imatinib]
Method in brief: as §1

Cladribine = compound: Nc1nc(Cl)nc2c1ncn2[C@H]1C[C@H](O)[C@@H](CO)O1 [Cladribine]
Method in brief: as §1

Iniparib = compound: NC(=O)c1ccc(I)c([N+](=O)[O-])c1 [Iniparib]
Method in brief: as §1

Idarubicin = compound: CC(=O)[C@]1(O)Cc2c(O)c3c(c(O)c2[C@@H](O[C@H]2C[C@H](N)[C@H](O)[C@H](C)O2)C1)C(=O)c1ccccc1C3=O [Idarubicin]
Method in brief: as §1

AG-221 (Enasidinib) = compound: CC(C)(O)CNc1nc(Nc2ccnc(C(F)(F)F)c2)nc(-c2cccc(C(F)(F)F)n2)n1 [AG-221 (Enasidinib)]
Method in brief: as §1

BEZ235 = compound: Cn1c(=O)n(-c2ccc(C(C)(C)C#N)cc2)c2c3cc(-c4cnc5ccccc5c4)ccc3ncc21 [BEZ235]
Method in brief: as §1

In the case of primary ALL patient cells (S088), the viability (Vemurafenib; 0.024 µM) is reported as 0.986, the viability (Vemurafenib; 0.12 µM) is reported as 0.933 and the viability (Vemurafenib; 0.6 µM) is reported as 1.08. It also gave a viability (Vemurafenib; 3 µM) of 1.43, a viability (Vemurafenib; 15 µM) of 1.78 and a viability (Pentostatin; 0.03 µM) of 0.809. It also gave a viability (Pentostatin; 0.15 µM) of 0.725, a viability (Pentostatin; 0.75 µM) of 0.786 and a viability (Pentostatin; 3.75 µM) of 0.669. The viability (Pentostatin; 18.76 µM) was 0.706, the viability (Carfilzomib; 0.00016 µM) was 0.844 and the viability (Carfilzomib; 0.0008 µM) was 0.348. The viability (Carfilzomib; 0.004 µM) was 0.0398, the viability (Carfilzomib; 0.02 µM) was 0.0238 and the viability (Carfilzomib; 0.1 µM) was 0.0318. The viability (MLN-120B; 0.024 µM) was 0.199, the viability (MLN-120B; 0.12 µM) was 0.231 and the viability (MLN-120B; 0.6 µM) was 0.233. It also gave a viability (MLN-120B; 3 µM) of 0.248, a viability (MLN-120B; 15 µM) of 0.24 and a viability (Rigosertib; 0.008 µM) of 0.756. For the same test system, the viability (Rigosertib; 0.04 µM) was 0.78, the viability (Rigosertib; 0.2 µM) was 0.778 and the viability (Rigosertib; 1 µM) was 0.806. For the same test system, the viability (Rigosertib; 5 µM) was 0.461, the viability (AZD7762; 0.024 µM) was 0.488 and the viability (AZD7762; 0.12 µM) was 0.38. The viability (AZD7762; 0.6 µM) was 0.256, the viability (AZD7762; 3 µM) was 0.227 and the viability (AZD7762; 15 µM) was 0.189. It also gave a viability ([1]; 0.024 µM) of 0.359, a viability ([1]; 0.12 µM) of 0.306 and a viability ([1]; 0.6 µM) of 0.205. It also gave a viability ([1]; 3 µM) of 0.128, a viability ([1]; 15 µM) of 0.0223 and a viability (Panobinostat; 0.00064 µM) of 0.699. The viability (Panobinostat; 0.0032 µM) was 0.266, the viability (Panobinostat; 0.016 µM) was 0.115 and the viability (Panobinostat; 0.08 µM) was 0.0993. For the same test system, the viability (Panobinostat; 0.4 µM) was 0.0891, the viability (Vincristine; 0.016 µM) was 0.689 and the viability (Vincristine; 0.08 µM) was 0.494. For the same test system, the viability (Vincristine; 0.4 µM) was 0.335, the viability (Vincristine; 2 µM) was 0.302 and the viability (Vincristine; 10 µM) was 0.256. The viability (Imatinib; 0.016 µM) was 1.08, the viability (Imatinib; 0.4 µM) was 1.04 and the viability (Imatinib; 10 µM) was 1.24. The viability (Cladribine; 0.024 µM) was 0.397, the viability (Cladribine; 0.12 µM) was 0.178 and the viability (Cladribine; 0.6 µM) was 0.122. It also gave a viability (Cladribine; 3 µM) of 0.0996, a viability (Cladribine; 15 µM) of 0.0732 and a viability (Iniparib; 0.024 µM) of 1.15. It also gave a viability (Iniparib; 0.12 µM) of 1.09, a viability (Iniparib; 0.6 µM) of 1.04 and a viability (Iniparib; 3 µM) of 1. For the same test system, the viability (Iniparib; 15 µM) was 0.898, the viability (Idarubicin; 0.024 µM) was 0.341 and the viability (Idarubicin; 0.12 µM) was 0.0818. For the same test system, the viability (Idarubicin; 0.6 µM) was 0.0274, the viability (Idarubicin; 3 µM) was 0.0177 and the viability (Idarubicin; 15 µM) was 0.0163. For the same test system, the viability (AG-221 (Enasidinib); 0.024 µM) was 0.115, the viability (AG-221 (Enasidinib); 0.12 µM) was 0.151 and the viability (AG-221 (Enasidinib); 0.6 µM) was 0.435. For the same test system, the viability (AG-221 (Enasidinib); 3 µM) was 0.457, the viability (AG-221 (Enasidinib); 15 µM) was 0.661 and the viability (BEZ235; 0.024 µM) was 0.751. It also gave a viability (BEZ235; 0.12 µM) of 0.644, a viability (BEZ235; 0.6 µM) of 0.529 and a viability (BEZ235; 3 µM) of 0.427. For the same test system, the viability (BEZ235; 15 µM) was 0.254.

For primary AML patient cells (S002), the viability (Vemurafenib; 0.024 µM) was 0.807, the viability (Vemurafenib; 0.12 µM) was 1.15 and the viability (Vemurafenib; 0.6 µM) was 0.924. The viability (Vemurafenib; 3 µM) was 1.43, the viability (Vemurafenib; 15 µM) was 1.68 and the viability (Pentostatin; 0.03 µM) was 0.785. It also gave a viability (Pentostatin; 0.15 µM) of 0.701, a viability (Pentostatin; 0.75 µM) of 1.08 and a viability (Pentostatin; 3.75 µM) of 0.835. For the same test system, the viability (Pentostatin; 18.76 µM) was 1.07, the viability (Carfilzomib; 0.00016 µM) was 0.941 and the viability (Carfilzomib; 0.0008 µM) was 0.633. It also gave a viability (Carfilzomib; 0.004 µM) of 0.195, a viability (Carfilzomib; 0.02 µM) of 0.0988 and a viability (Carfilzomib; 0.1 µM) of 0.0663. It also gave a viability (MLN-120B; 0.024 µM) of 0.876, a viability (MLN-120B; 0.12 µM) of 0.994 and a viability (MLN-120B; 0.6 µM) of 0.805. The viability (MLN-120B; 3 µM) was 0.811, the viability (MLN-120B; 15 µM) was 0.619 and the viability (Rigosertib; 0.008 µM) was 0.949. For the same test system, the viability (Rigosertib; 0.04 µM) was 0.952, the viability (Rigosertib; 0.2 µM) was 0.943 and the viability (Rigosertib; 1 µM) was 0.803. For the same test system, the viability (Rigosertib; 5 µM) was 1.02, the viability (AZD7762; 0.024 µM) was 0.79 and the viability (AZD7762; 0.12 µM) was 0.964. The viability (AZD7762; 0.6 µM) was 0.647, the viability (AZD7762; 3 µM) was 0.526 and the viability (AZD7762; 15 µM) was 0.38. For the same test system, the viability ([1]; 0.024 µM) was 0.897, the viability ([1]; 0.12 µM) was 0.665 and the viability ([1]; 0.6 µM) was 0.411. It also gave a viability ([1]; 3 µM) of 0.283, a viability ([1]; 15 µM) of 0.183 and a viability (Panobinostat; 0.00064 µM) of 1.1. For the same test system, the viability (Panobinostat; 0.0032 µM) was 0.723, the viability (Panobinostat; 0.016 µM) was 0.282 and the viability (Panobinostat; 0.08 µM) was 0.318. For the same test system, the viability (Panobinostat; 0.4 µM) was 0.242, the viability (Vincristine; 0.016 µM) was 1.11 and the viability (Vincristine; 0.08 µM) was 1.18. The viability (Vincristine; 0.4 µM) was 1.14, the viability (Vincristine; 2 µM) was 0.99 and the viability (Vincristine; 10 µM) was 0.961. It also gave a viability (Imatinib; 0.08 µM) of 1, a viability (Imatinib; 0.4 µM) of 1.1 and a viability (Imatinib; 2 µM) of 1.17. It also gave a viability (Imatinib; 10 µM) of 1.26, a viability (Cladribine; 0.024 µM) of 0.456 and a viability (Cladribine; 0.12 µM) of 0.412. It also gave a viability (Cladribine; 0.6 µM) of 0.358, a viability (Cladribine; 3 µM) of 0.365 and a viability (Cladribine; 15 µM) of 0.349. It also gave a viability (Iniparib; 0.024 µM) of 1.07, a viability (Iniparib; 0.12 µM) of 1.17 and a viability (Iniparib; 0.6 µM) of 0.968. For the same test system, the viability (Iniparib; 3 µM) was 1.04, the viability (Iniparib; 15 µM) was 0.831 and the viability (Idarubicin; 0.024 µM) was 0.332. It also gave a viability (Idarubicin; 0.12 µM) of 0.303, a viability (Idarubicin; 0.6 µM) of 0.267 and a viability (Idarubicin; 3 µM) of 0.217. For the same test system, the viability (Idarubicin; 15 µM) was 0.165, the viability (AG-221 (Enasidinib); 0.024 µM) was 0.784 and the viability (AG-221 (Enasidinib); 0.12 µM) was 0.841. The viability (AG-221 (Enasidinib); 0.6 µM) was 0.857, the viability (AG-221 (Enasidinib); 3 µM) was 0.8 and the viability (AG-221 (Enasidinib); 15 µM) was 0.693. For the same test system, the viability (BEZ235; 0.024 µM) was 0.979, the viability (BEZ235; 0.12 µM) was 0.963 and the viability (BEZ235; 0.6 µM) was 0.868. For the same test system, the viability (BEZ235; 3 µM) was 0.853 and the viability (BEZ235; 15 µM) was 0.409.
